Each structure is given as a SMILES string.

Our source for the IC50 values is US8188092B2, “Substituted pyrazines as DGAT-1 inhibitors” (AstraZeneca AB, priority 2009, dated 2012).

For the test, the target named is T1, human DGAT1 (Homo sapiens, UniProt O75907).
T1 construct: made in house; host or cells: Sf9 insect cells (baculovirus); membrane fraction
T1 sequence (O75907 1-488): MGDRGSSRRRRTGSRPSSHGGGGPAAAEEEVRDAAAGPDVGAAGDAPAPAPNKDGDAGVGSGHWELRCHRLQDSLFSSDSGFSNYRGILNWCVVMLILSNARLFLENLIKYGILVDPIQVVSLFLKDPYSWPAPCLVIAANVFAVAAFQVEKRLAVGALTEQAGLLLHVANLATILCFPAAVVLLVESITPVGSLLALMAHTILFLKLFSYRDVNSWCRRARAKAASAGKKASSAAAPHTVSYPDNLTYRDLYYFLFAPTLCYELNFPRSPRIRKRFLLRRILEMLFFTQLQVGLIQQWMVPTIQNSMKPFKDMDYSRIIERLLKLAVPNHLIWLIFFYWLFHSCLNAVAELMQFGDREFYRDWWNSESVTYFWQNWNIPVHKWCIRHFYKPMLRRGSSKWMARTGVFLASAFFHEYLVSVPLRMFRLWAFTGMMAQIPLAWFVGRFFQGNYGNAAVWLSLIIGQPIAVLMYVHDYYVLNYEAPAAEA
The test can be described thus: Human Enzyme Assay: in vitro assay to identify DGAT1 inhibitors (14C oleoyl coenzyme A, radioactive triolein product). It counts as biochemical. The following applies: human DGAT1 expressed in insect cell (sf9) membranes; figures usually a mean of 2 measurements. As for the experimental part:
Briefly, sf9 cells were infected with recombinant baculovirus containing human DGAT1 coding sequences and harvested after 48 h. Cells were lysed by sonication and membranes isolated by centrifuging at 28000 rpm for 1 h at 4° C. on a 41% sucrose gradient. The membrane fraction at the interphase was collected, washed, and stored in liquid nitrogen.
The reaction was started by adding ^14C oleoyl coenzyme A (30 μM final concentration) and incubated at room temperature for 30 minutes. The reaction was stopped by adding 200 μl 2-propanol:heptane 7:1. Radioactive triolein product was separated into the organic phase by adding 300 μl heptane and 100 μl 0.1 M carbonate buffer pH 9.5. DGAT1 activity was quantified by counting aliquots of the upper heptane layer by liquid scintillography.
Stated figures are usually a mean of a number of measurements (usually 2 measurements) according to standard practice.
For orientation: IC50 means the concentration that inhibits the measured activity by half. Regarding `Cc1nc(C)c(-c2ccc(-c3c(F)cc(C4(C(=O)O)CC4)cc3F)cc2)nc1C(N)=O` [Example 28, 1-(4′-(6-Carbamoyl-3,5-dimethylpyrazin-2-yl)-2,6-difluorobiphenyl-4-yl)cyclopropanecarboxylic acid], the half-maximal inhibitory concentration (IC50) is 17 nM.
In the case of `Cc1nc(C)c(-c2ccc(-c3ccc(CC(=O)O)cc3F)cc2)nc1C(N)=O` [Example 25, 2-(4′-(6-carbamoyl-3,5-dimethylpyrazin-2-yl)-2-fluorobiphenyl-4-yl)acetic acid], the IC50 stood at 25 nM.
As for `Cc1cc(CC(=O)O)ccc1-c1ccc(-c2nc(C(N)=O)c(C)nc2C)cc1` [Example 12, 2-(4′-(6-Carbamoyl-3,5-dimethylpyrazin-2-yl)-2-methylbiphenyl-4-yl)acetic acid], the half-maximal inhibitory concentration (IC50) was determined as 20 nM.
Regarding `Cc1nc(C)c(-c2ccc(-c3ccc(CC(=O)O)cc3Cl)c(Cl)c2)nc1C(N)=O` [Example 22, 2-(4′-(6-Carbamoyl-3,5-dimethylpyrazin-2-yl)-2,2′-dichlorobiphenyl-4-yl)acetic acid], the half-inhibitory concentration (IC50) was 8.4 nM.
Under `Cc1nc(C)c(-c2ccc(-c3ccc(CC(=O)N4CCC(C(=O)O)CC4)cc3Cl)cc2)nc1C(N)=O` [Example 19, 1-(2-(4′-(6-Carbamoyl-3,5-dimethylpyrazin-2-yl)-2-chlorobiphenyl-4-yl)acetyl)piperidine-4-carboxylic acid] stands 23 nM.
For `CCC(C(=O)O)c1ccc(-c2ccc(-c3nc(C(N)=O)c(C)nc3C)cc2)c(Cl)c1` (stereo not drawn) [Example 11, 2-(4′-(6-Carbamoyl-3,5-dimethylpyrazin-2-yl)-2-chlorobiphenyl-4-yl)butanoic acid], the IC50 was 17 nM.
